These results are taken from patent US6787557B2 (priority 2000, dated 2004).

Several values for one entry are separate records, joined by “and”; a condition that tells them apart may be missing. Equal values may be shown once. Read-outs that look alike come from different tables or passages of the source.

Assay [1] deals with rice blast fungi. In kind it is in vivo, Pyricularia oryzae.
The subject of assay [2] is rice blast fungi. Type of assay: in vivo, Pyricularia oryzae. This is another data set of the same source.

In the case of “2,3-dimethyl-6-t-butyl-8-fluoro-4-n-butoxycarbonyl-quinoline [Compound 9]”, the Protective value is 98 and 87 in assay [1] (in vivo); 99 and 90 in assay [2] (in vivo).

Take “2,3-dimethyl-6-t-butyl-8-fluoro-4-methoxyacetylquinoline [Compound 10]”: the Protective value in assay [1] (30 ppm) came out at 90; in assay [1] (100 ppm) it was 100; in assay [2] (3 ppm) it was 99; in assay [2] (10 ppm) it was 100.

As for “2,3-dimethyl-6-t-butyl-8-fluoro-4-n-propoxycarbonyl-quinoline [Compound 8]”, the Protective value in assay [1] (in vivo) was 98 and 84; in assay [2] (in vivo), 100 and 92.

For the compound “2,3-dimethyl-6-t-butyl-8-fluoro-4-butyrylquinoline [Compound 4]”, the Protective value in assay [1] (37.5 ppm) is on record as 66; in assay [1] (75 ppm), 94.

Regarding “2,3-dimethyl-6-t-butyl-8-fluoro-4-acetoxyacetylquinoline [Compound 11]”, the Protective value in assay [1] (30 ppm) was found to be 88; in assay [1] (100 ppm), 99; in assay [2] (3 ppm) it was 94; in assay [2] (10 ppm) it was 100.

As for `Cc1nc2c(F)cc(C(C)(C)C)cc2c(O)c1C` [Compound 1, 2,3-dimethyl-6-t-butyl-8-fluoro-4-hydroxyquinoline], the Protective value in assay [2] (3 ppm) is listed as 93; in assay [2] (10 ppm), 100.

“2,3-dimethyl-6-t-butyl-8-fluoro-4-valerylquinoline [Compound 5]”: the Protective value in assay [1] (37.5 ppm) was 82; in assay [1] (75 ppm), 95; in assay [2] (3 ppm), 84; in assay [2] (10 ppm) it was 99.
